# Measurements published in US20160082161A1, “DRUG-ELUTING MEDICAL DEVICES” (Ramot at Tel-Aviv University Ltd., priority 2008, published 2016).
# Assay: In vitro drug release from drug-eluting composite fibers in PBS
# Type: physicochemical
# Settings: PBS pH 7.4, 37° C.; PDLGA porous coat
# Experimental: The composite drug-eluting fibers were immersed in phosphate buffered saline (PBS) at 37° C. and pH 7.4 for 35 days (FTS) or 37 weeks (paclitaxel), in triplicates, in order to determine the release kinetics from the drug-loaded composite structures. Each test vial contained 2 fibers; each fiber was 5 cm long. The release studies were conducted in closed glass tubes containing 3 ml PBS medium, using a horizontal bath shaker operated at a constant rate of 130 rpm. The medium was removed completely at certain sampling time points, extracted from the aqueous medium as described herein and measured using HPLC. Fresh medium was then introduced. At the end of the experiment the fibers were immersed in methylene chloride and the residual amount of drug was measured.
# The drug content of the medium samples was determined using Jasco High Performance Liquid Chromatography (HPLC) equipped with a UV 2075 plus detector and a quaternary gradient pump (PU 2089 plus). […] The paclitaxel content of the medium samples was determined using a reverse phase column (Zorbax ODS 5 μm, inner diameter 4.6 mm, length 150 mm), and kept at 25° C. […]
# On the final day of the in vitro trial, residual FTS from composite drug-eluting fibers was measured as follows: the fibers were placed in 1 ml methylene chloride for 10 minutes and the coating shell was dissolved. […]
row,Structure (SMILES),Drug release from porous coat structures (time scale)
1,"CC(C)=CCCC(C)=CCCC(C)=CCSc1ccccc1C(=O)O (stereo in doubt) [FTS, 2-((2E,6E)-3,7,11-trimethyldodeca-2,6,10-trienylthio)benzoic acid]",relatively fast FTS release within several weeks
2,"CC(=O)O[C@H]1C(=O)[C@@]2(C)[C@H]([C@H](OC(=O)c3ccccc3)[C@]3(O)C[C@H](OC(=O)[C@H](O)[C@@H](NC(=O)c4ccccc4)c4ccccc4)C(C)=C1C3(C)C)[C@]1(OC(C)=O)CO[C@@H]1C[C@@H]2O [paclitaxel, Paclitaxel]",slower paclitaxel release within several months
